Results reported in patent publication US20250130239A1, “PROTEIN DEGRADER” (University of Dundee, priority 2021, published 2025).

Tests used:
[1] = target: T1, Brd3 (Homo sapiens, UniProt Q15059); assay: Off-target degradation of Brd3 (western blot) in BromoTag-Brd2 HEK293 cells; assay type: cell-based
T1 construct: endogenous Brd3 and Brd4; endogenous in cells; host or cells: heterozygous BromoTag-Brd2 HEK293 cells
Experimental: Dose-response Degradation Assays. All dose-response degradation assays were performed on the genotype verified heterozygous BromoTag-Brd2 HEK293 cell line. Heterozygous BromoTag-Brd2 HEK293 cells were plated at a density of 5×10^5 cells per well of a six healthy plate a day before initiation of the titration experiment. PROTAC compounds were dissolved in DMSO at a concentration of 10 mM, from these stock concentrations, PROTAC compounds were diluted to appropriate concentrations using DMSO in the range of 10 μM-1 nM. The compounds were then added to a 2 mL of DMEM (Invitrogen, Carlsebad, CA, USA) supplemented with 10% (v/v) Fetal bovine serum (FBS) (Thermo Fisher, Waltham, MA, USA) and 1% (v/v) penicillin/streptomycin (pen/strep) (#15140122, Thermo Fisher, Waltham, MA, USA) and added to the cells at initiation of the experiment. Control compounds such as MZ1, cis-MZ1 were similarly dissolved in DMSO to the appropriate concentration. […]
(§1) Western Blotting. […] Total protein quantity was determined using the BCA protein assay (#23225, Pierce, Rockford, Illinois). Protein concentration was determined using the BCA assay (ThermoFisher Scientific, 23225). […] All western blots were analysed for band intensities using Image Lab from Bio-Rad (LI-COR, Biosciences). The data extracted from these blots were then plotted and analysed using Prism (v. 8.2.0, GraphPad).

[2] = tested on: untagged Brd2 and endogenous Brd3 and Brd4; assay: Off-target degradation of endogenous BET proteins (western blot) in BromoTag-Brd2 HEK293 cells; assay type: cell-based, human; details: 1 nM to 10 μM; 6 h
Experimental: Dose-response Degradation Assays. All dose-response degradation assays were performed on the genotype verified heterozygous BromoTag-Brd2 HEK293 cell line. Heterozygous BromoTag-Brd2 HEK293 cells were plated at a density of 5×10^5 cells per well of a six healthy plate a day before initiation of the titration experiment. PROTAC compounds were dissolved in DMSO at a concentration of 10 mM, from these stock concentrations, PROTAC compounds were diluted to appropriate concentrations using DMSO in the range of 10 μM-1 nM. The compounds were then added to a 2 mL of DMEM (Invitrogen, Carlsebad, CA, USA) supplemented with 10% (v/v) Fetal bovine serum (FBS) (Thermo Fisher, Waltham, MA, USA) and 1% (v/v) penicillin/streptomycin (pen/strep) (#15140122, Thermo Fisher, Waltham, MA, USA) and added to the cells at initiation of the experiment. Control compounds such as MZ1, cis-MZ1 were similarly dissolved in DMSO to the appropriate concentration. All titration experiment were performed for a total of 6 hours prior to being harvested and were kept at 37° C., 5% CO2, and 95% humidity once treatment was applied until right before harvesting. Cells were washed twice with PBS before being harvested.
as §1
Development of a Knock-in Cell Line with BromoTag fused to endogenous Brd2 using CRISPR. […] To this end, the endogenous BET family protein Brd2 was chosen as a model target, due to the availability of well-established antibody for Brd2 detection, and expression of a single protein isoform as well detected band in the western blot (Filippakopoulos, P.; Knapp, S., Nat Rev Drug Discov. 2014, 13 (5), 337-356). […]

[3] = target: T2, BromoTag-Brd2 (Homo sapiens, UniProt O60885+P40337, L387A); assay: Time-course degradation assay in heterozygous BromoTag-Brd2 HEK293 cells; assay type: cell-based; details: 500 nM 47, 1 μM 48; over 36 h
T2 construct: comprising residues 368-440 of human Brd4; Brd2 (endogenous protein, fusion partner in the same polypeptide); eGFP-P2A (upstream marker in the knock-in cassette) (N, cleaved yes); expressed in transfected cells; host or cells: HEK293, heterozygous CRISPR knock-in at the endogenous BRD2 locus
Experimental: Time-course Degradation Assay. Time-course degradation assays using PROTACs AGB1, AGB2, and AGB3 were performed on the genotype verified heterozygous BromoTag-Brd2 HEK293 cell line. Heterozygous BromoTag-Brd2 HEK293 cells were plated at a density of 5×10^5 cells per well of a 6 healthy plate a day prior to initiation of the Timecourse assay. PROTAC's AGB1 & AGB2 were diluted in DMSO to a concentration of 1 mM prior to being further diluted 1:2000 in 2 mL of DMEM to a concentration of 500 nM per timepoint. PROTAC AGB3 was diluted in DMSO to a concentration of 2 mM prior to being further diluted 1:2000 in 2 mL of DMEM to a concentration of 1 μM per timepoint. Timepoint range was between 0-36 h. Treatment was applied in a staggered fashion to enable all timepoints to be harvested at the same time.
Western Blotting. All cells were harvested on ice with RIPA lysis, and extraction buffer (ThermoFisher Scientific, 89901) supplemented with protease inhibitor cocktail (Merck, 11697498001) and Benzonase® Nuclease (Sigma, E1014) before being store at −20° C. prior to use. Total protein quantity was determined using the BCA protein assay (#23225, Pierce, Rockford, Illinois). Protein concentration was determined using the BCA assay (ThermoFisher Scientific, 23225). Samples were then prepared and loaded onto NuPAGE™ 4-12% Bis-Tris Midi gels (ThermoFisher Scientific, WG1403A), followed by the transfer of the proteins onto nitrocellulose membranes (EMD Millipore). The membranes were blocked for 1 h prior to incubation with the primary antibodies using 5% Milk TBST. Membranes were probed for Brd2 (Abcam, Ab139690, 1:1000), Brd3 (Abcam, Ab50818, 1:4000), Brd4 (Abcam, Ab128874, 1:1000) or our polyclonal Brd4^BD2 L387A antibody. […] All western blots were analysed for band intensities using Image Lab from Bio-Rad (LI-COR, Biosciences). The data extracted from these blots were then plotted and analysed using Prism (v. 8.2.0, GraphPad).

[4] = target: T3, VHL (VCB protein) (Homo sapiens, UniProt P40337); assay: Fluorescence polarization competitive binding assay, binary binding; details: compound alone; displacement of HIF-1a peptide probe; read-out: binary affinity to VHL Kd
T3 construct: N-terminally Hiss-tagged VHL (54-213); His6 (N, cleaved yes); made in house; host or cells: E. coli
Experimental: (§2) Protein Expression and Purification. […] The complex was further purified by anion exchange followed by gel filtration chromatography.
(§3) Fluorescence Polarization Binding Assay. […] All components were dissolved from stock solutions using 100 mM Bis-Tris propane, 100 mM NaCl, 1 mM DTT, pH 7.0, to yield a final assay volume of 15 μL. DMSO was added as appropriate to ensure a final concentration of 2% v/v. […] Percentage displacement values were obtained by normalization of controls were plotted against Log[Compound]. IC50 values were determined for each titration using nonlinear regression analysis with Prism (v. 9.1.0, GraphPad). […] Cooperativity values (a) for each PROTAC were calculated using the ratio: α=binary Kd (−bromodomain)/ternary Kd (+bromodomain).

[5] = target: T4, VHL, compound preincubated with Brd4^BD2 L387A (Homo sapiens, UniProt O60885+P40337, L387A); assay: Fluorescence polarization competitive binding assay, ternary complex binding; details: displacement of HIF-1a peptide probe, read-out: ternary binding affinity Kd
T4 construct: N-terminally Hiss-tagged VHL (54-213); N-terminally His6-tagged Brd4-BD2^L387A (333-460) was expressed in E. coli; His6 (N, cleaved yes); made in house; host or cells: E. coli
Experimental: as §2, §3

[6] = target: T2, BromoTag-Brd2; assay: Dose-response degradation assay (western blot, 6 h) in heterozygous BromoTag-Brd2 HEK293 cells; assay type: cell-based; details: 6 h; for pDC50: 8-point 10 μM-1 nM, mean (±S.E.) of two repeats
Experimental: Dose-response Degradation Assays. All dose-response degradation assays were performed on the genotype verified heterozygous BromoTag-Brd2 HEK293 cell line. Heterozygous BromoTag-Brd2 HEK293 cells were plated at a density of 5×10^5 cells per well of a six healthy plate a day before initiation of the titration experiment. PROTAC compounds were dissolved in DMSO at a concentration of 10 mM, from these stock concentrations, PROTAC compounds were diluted to appropriate concentrations using DMSO in the range of 10 μM-1 nM. […] Control compounds such as MZ1, cis-MZ1 were similarly dissolved in DMSO to the appropriate concentration. […] Cells were washed twice with PBS before being harvested.
Western Blotting. […] The membranes were blocked for 1 h prior to incubation with the primary antibodies using 5% Milk TBST. […] Following overnight incubation with the primary antibodies at 4° C., the membranes were incubated with secondary antibodies (Anti-rabbit, Abcam AB216773, 1:5000 or anti-mouse, Abcam AB216774, 1:5000) and hFAB™ Rhodamine Anti-Tubulin Antibody (Biorad, 12004165, 1:10000) for one h and then imaged with a Bio-Rad imager (LI-COR Biosciences). All western blots were analysed for band intensities using Image Lab from Bio-Rad (LI-COR, Biosciences). The data extracted from these blots were then plotted and analysed using Prism (v. 8.2.0, GraphPad).

Compound | off-target degradation of Brd3 ([1]; at 1 μM, 6 h) | off-target degradation of untagged Brd2 or the other endogenous BET proteins [2] | extent of BromoTag-Brd2 degradation in the time course [3] | Kd [4] | off-target degradation of Brd3 ([1]; at 100-1,000 nM) | Kd [5] | DC50 ([6]; range over the two antibodies) | pDC50 ([6]; Ab: Brd4^BD2 L387A, single stereoisomers) | pDC50 ([6]; Ab: BromoTag-Brd2, single stereoisomers) | Dmax ([6]; HEK293, Ab: Brd4^BD2 L387A, single stereoisomers)
CC[C@@H](C(=O)OCCOCCCOCC(=O)N[C@H](C(=O)N1C[C@H](O)C[C@H]1C(=O)N[C@@H](C)c1ccc(-c2scnc2C)cc1)C(C)(C)C)[C@@H]1N=C(c2ccc(Cl)cc2)c2c(sc(C)c2C)-n2c(C)nnc21 (relative stereo) [ET-OARV-771 (25), 2-(3-(2-(((S)-1-((2S,4R)-4-hydroxy-2-(((S)-1-(4-(4-methylthiazol-5-yl)phenyl)ethyl)carbamoyl)pyrrolidin-1-yl)-3,3-dimethyl-1-oxobutan-2-yl)amino)-2-oxoethoxy)propoxy)ethyl (R*)-2-((S*)-4-(4-chlorophenyl)-2,3,9-trimethyl-6H-thieno[3,2-f][1,2,4]triazolo[4,3-a][1,4]diazepin-6-yl)butanoate] | minor off-target degradation | no observable off-target degradation |  |  |  |  |  |  |  | 
CC[C@@H](C(=O)OCCOCCCOCC(=O)N[C@H](C(=O)N1C[C@H](O)C[C@H]1C(=O)N[C@@H](C)c1ccc(-c2scnc2C)cc1)C(C)(C)C)[C@@H]1N=C(c2ccc(Cl)cc2)c2c(sc(C)c2C)-n2c(C)nnc21 (single isomer, unassigned) [AGB2 (47)] |  |  | near complete target degradation | 45 nM | minor off-target degradation | 12 nM |  |  |  | 
CC[C@@H](C(=O)NCCOCCOCCOCC(=O)N[C@H](C(=O)N1C[C@H](O)C[C@H]1C(=O)NCc1ccc(-c2scnc2C)cc1)C(C)(C)C)[C@@H]1N=C(c2ccc(Cl)cc2)c2c(sc(C)c2C)-n2c(C)nnc21 (single isomer, unassigned) [AGB3 (48)] |  |  | ~80% | 102 nM |  | 9 nM | 210 to 290 nM | 6.5 ± 0.3 | 6.7 ± 0.1 | 92%
